Measurements as given in ChEMBL document CHEMBL3885861, “Open TG-GATES”.

Species: Rattus norvegicus
Experiment: Open TG-GATES - Regimen: Single
Format: toxicity, organism-based, Sprague-Dawley
Parameters: regimen Single, gender Male, age 6 weeks
Conditions: in vivo, po, 200 mg/kg, route gavage, dose level Low; for APTT / Bas / Eos / Fbg / Hb / Ht / Lym / MCH / MCHC / MCV / Mono / Neu / PT / Plat / RBC / Ret / WBC: tissue Blood; for KIDNEY_L / KIDNEY_R / KIDNEY_TOTAL: tissue Kidney; for LIVER: tissue Liver; for A/G / ALP / ALT / AST / BUN / CRE / Ca / Cl / DBIL / GLC / IP / K / LDH / Na / PL / RALB / TBIL / TC / TG / TP / gamma-GTP: tissue Plasma

NNC(=O)c1ccncc1 [ISONIAZID]
TERMINAL_BW (9 h): 218.2 g | APTT (9 h): 18.8 s | Bas (9 h): 0.2% | Eos (9 h): 0.6% | Fbg (9 h): 228.2 mg/dL | Hb (9 h): 13.7 g/dL | Ht (9 h): 37.9% | Lym (9 h): 75% | MCH (9 h): 21.8 pg | MCHC (9 h): 36% | MCV (9 h): 60.6 fL | Mono (9 h): 3% | Neu (9 h): 20.8% | PT (9 h): 12.3 s | Plat (9 h): 119 x10_4/uL | RBC (9 h): 626.2 x10_4/ul | Ret (9 h): 7.8% | WBC (9 h): 82.5 x10_2/uL | KIDNEY_L (9 h): 0.9 g | KIDNEY_R (9 h): 0.9 g | KIDNEY_TOTAL (9 h): 1.8 g | LIVER (9 h): 8.8 g | A/G (9 h): 1.7 | ALP (9 h): 793.2 IU/L | ALT (9 h): 23.4 IU/L | AST (9 h): 44.6 IU/L | BUN (9 h): 9.4 mg/dL | CRE (9 h): 0.4 mg/dL | Ca (9 h): 10.5 mg/dL | Cl (9 h): 105 meq/L | DBIL (9 h): 0.064 mg/dL | GLC (9 h): 195.2 mg/dL | IP (9 h): 9.3 mg/dL | K (9 h): 3.9 meq/L | LDH (9 h): 211.4 IU/L | Na (9 h): 142.8 meq/L | PL (9 h): 150.2 mg/dL | RALB (9 h): 3.5 g/dL | TBIL (9 h): 0.1 mg/dL | TC (9 h): 80.2 mg/dL | TG (9 h): 77.2 mg/dL | TP (9 h): 5.5 g/dL | gamma-GTP (9 h): 1 IU/L | TERMINAL_BW (24 h): 229.4 g | APTT (24 h): 18.3 s | Bas (24 h): 0.8% | Eos (24 h): 1% | Fbg (24 h): 229.2 mg/dL | Hb (24 h): 13.5 g/dL | Ht (24 h): 37.6% | Lym (24 h): 78.8% | MCH (24 h): 21.7 pg | MCHC (24 h): 36.1% | MCV (24 h): 60 fL | Mono (24 h): 2.4% | Neu (24 h): 16% | PT (24 h): 11.7 s | Plat (24 h): 134.2 x10_4/uL | RBC (24 h): 626.6 x10_4/ul | Ret (24 h): 6.5% | WBC (24 h): 89.2 x10_2/uL | KIDNEY_L (24 h): 1 g | KIDNEY_R (24 h): 1 g | KIDNEY_TOTAL (24 h): 2 g | LIVER (24 h): 10.3 g | A/G (24 h): 1.6 | ALP (24 h): 1043.4 IU/L | ALT (24 h): 30 IU/L | AST (24 h): 58.2 IU/L | BUN (24 h): 15.6 mg/dL | CRE (24 h): 0.4 mg/dL | Ca (24 h): 10.8 mg/dL | Cl (24 h): 103 meq/L | DBIL (24 h): 0.06 mg/dL | GLC (24 h): 200.4 mg/dL | IP (24 h): 8.5 mg/dL | K (24 h): 4.3 meq/L | LDH (24 h): 221.4 IU/L | Na (24 h): 141.8 meq/L | PL (24 h): 139 mg/dL | RALB (24 h): 3.6 g/dL | TBIL (24 h): 0.1 mg/dL | TC (24 h): 71.4 mg/dL | TG (24 h): 101.6 mg/dL | TP (24 h): 5.7 g/dL | gamma-GTP (24 h): 1.4 IU/L
